Where a name gives a salt, the structure may show the parent alone. Read-outs that look alike come from different tables or passages of the source.
Legend:
[1] = cited from earlier work
[2] = Source text: After solubilizing the sugar and the compound in ethanol or aqueous ethanol, the ethanol is evaporated for example under a high rotary vacuum. The powder resulting from the evaporation step is then resolubilized (dissolved) in water. Another solvent can be methanol at 80% methanol, 95% (ACS grade) or greater (to 100% methanol) as well as combinations of methanol and ethanol or methanol and water. After solubilizing the sugar and the compound in ethanol or aqueous ethanol, the ethanol is evaporated for example under a high rotary vacuum. The powder resulting from the evaporation step is then resolubilized (dissolved) in water.
Generally, ingredients are deposited into a sealed container with ethanol and vortex-mixed to form a solution. The solution is subjected to centrifugation. The ethanol is evaporated off and the dried mixture was dissolved in water. This mixture is centrifuged again and the supernatant is filtered through a membrane. […] In one embodiment, the admixing process involves dissolving the PSD and sugar in the ethanol while stirring and adjusting the pH as necessary to obtain complete dissolution and a clear reaction mixture. The reaction mixture can then be dried to remove the ethanol. No further water washing or filtering is needed.
In this example, an oven-dried single-neck RB flask equipped with a magnetic stir bar was used. […] The reaction mixture was vigorously stirred at room temperature for 30 min at 20° C. […] The white solid was dried using vacuum drying performed at room temperature and a high vacuum pump for about one hour to remove the ethanol (EtOH) completely using an Edvards Model #RV8 […], a Heidolph type Basis Hei-VAP Value, No. 560-00000-0101. The high vacuum pump was connected to a cooling trap and the trap was connected to the RB flask. Vacuum strength was about 1 mm Hg.
The white foamy solid was dried over a high vacuum at room temperature for an additional hour to remove the water completely, by ascertaining changes in weight loss. Drying continued until further weight loss was not observed.
Step 1: In an oven-dried single neck RB flask equipped with magnetic stir and septa (flask cap), 5 mg sildenafil (0.01054 mmol) and 16.95 mg stevioside (1:2 molar ratio) were weighed into the RB flask and dissolved in 85% ethanol (˜2.0 mL, denatured 85% ethanol) at ambient temperature. The reaction mixture was vigorously stirred at room temperature for 30 min. […] The white solid was dried over a high vacuum for an hour to remove the ethanol completely (no further reduction in weight was observed).
Step 2: The obtained white solid was then dissolved in 2.0 mL water at room temperature in an RB flask with a magnetic stir bar. The reaction mixture was stirred at ambient temperature for 30 min. […] The white foamy solid was dried over a high vacuum at room temperature for an additional hour to remove the water completely. The weight of the flask was checked while drying until no further weight loss was observed.

[3] = cited from earlier work; remark: listed apart in the source
[4] = Non-caloric sugar solubility in water and 95% ethanol
Procedure: In this experiment, the following sugars were compared for solubility: rubusoside, dulcoside A, rebaudioside B, dulcoside B, and rebaudioside D. Approximately 5.0 mg of each sugar was attempted to be dissolved in 0.6 mL water and vortexed for 2 minutes at room temperature.
In another experiment, 50 mg stevia was dissolved in either 2.0 mL water or 2.0 mL 95% ethanol.

[5] = approximately 5.0 mg in 0.6 mL water, vortexed 2 minutes, room temperature

Nc1nc2c(ncn2COCCO)c(=O)[nH]1 [Acyclovir]
water solubility ([1]; drug alone): less than 1 mg/mL

CCCCC[C@H](O)/C=C/[C@H]1[C@H](O)CC(=O)[C@@H]1CCCCCCC(=O)O [Alprostadil, (1R,2R,3R)-3-Hydroxy-2-[(E)-(3S)-3-hydroxy-1-octenyl]-5-oxocyclopentane heptanoic acid]
solubility in DMSO [1]: soluble
solubility in distilled water ([1]; distilled water): 8000 μg per 100 mL
solubility in water ([1]; drug alone): insoluble
water solubility ([1]; drug alone): less than 1 mg/mL
solubility in ethanol, ether and ethyl acetate ([1]; printed over two lines: nearly / insoluble): insoluble in ethanol, ether
solubility of the complex in water by NMR [2]: 100%

COc1ccc(CN=c2[nH]c(N3CCC[C@H]3CO)ncc2C(=O)NCc2ncccn2)cc1Cl [Avanafil, 4-[(3-chloro-4-methoxyphenyl)methylamino]-2-[(2S)-2-(hydroxymethyl)pyrrolidin-1-yl]-N-(pyrimidin-2-ylmethyl)pyrimidine-5-carboxamide]
solubility in DMSO ([1]; at 25° C.): Soluble in DMSO (97 mg/ml
solubility in DMSO [1]: soluble
solubility in water by NMR [2]: 100%

O=C(CO)[C@@H](O)[C@H](O)[C@H](O)CO [D-fructose]
Sugar Solubility in 95% EtOH [3]: Insoluble
solubility of the sugar in 95% ethanol (observation) ([4]; Example 22, 200 mg, 20° C.): not soluble
solubility of the sugar in water (observation) ([4]; Example 22, 200 mg, 20° C.): soluble

CC(=O)O[C@H]1C(=O)[C@@]2(C)[C@H]([C@H](OC(=O)c3ccccc3)[C@]3(O)C[C@H](OC(=O)[C@H](O)[C@@H](NC(=O)c4ccccc4)c4ccccc4)C(C)=C1C3(C)C)[C@]1(OC(C)=O)CO[C@@H]1C[C@@H]2O [Paclitaxel]
Solubility of Paclitaxel In Ethanol, With Rubusoside [2]: Soluble
Solubility of Paclitaxel In Water after first being dissolved in EtOH, With Rubusoside [2]: Insoluble
Solubility of Paclitaxel In Water, With Rubusoside [2]: Insoluble

CC1(C)S[C@@H]2[C@H](NC(=O)COc3ccccc3)C(=O)N2[C@H]1C(=O)O [Penicillin V HCl, phenoxymethylpenicillinic acid]
Solubility of Penicillin V HCl In Ethanol, Without Rubusoside ([1]; Example 24): Soluble
Solubility of Penicillin V HCl In Water, Without Rubusoside ([1]; Example 24): 0.636 mg/mL or at
Solubility of Penicillin V HCl In Water, Without Rubusoside ([1]; Example 24, pH 1.8 acidified with HCl): HCl at 24 mg/100 mL
Solubility In Water, Without Rubusoside (table of Example 25) ([1]; Example 25 (acyclovir and rubusoside), at 55° C.): 1 mg/mL at 55 °C
Solubility In Water, Without Rubusoside (table of Example 25) ([1]; Example 25 (acyclovir and rubusoside), at pH 1.8): 24 mg/100 mL at
Solubility In 95% Ethanol, Without Rubusoside (table of Example 25) ([1]; Example 25 (acyclovir and rubusoside)): Soluble
Solubility In 95% Ethanol, With Rubusoside (table of Example 25) [2]: Soluble
Solubility In Water after first being dissolved in EtOH, With Rubusoside (table of Example 25) [2]: Soluble
Solubility In Water, With Rubusoside (table of Example 25) [2]: Soluble
Solubility of Penicillin V HCl In Ethanol, With Rubusoside [2]: Soluble
Solubility of Penicillin V HCl In Water after first being dissolved in EtOH, With Rubusoside [2]: Soluble
Solubility of Penicillin V HCl In Water, With Rubusoside [2]: Soluble

C=C1C[C@@]23CC[C@H]4[C@@](C)(CCC[C@@]4(C)C(=O)O[C@@H]4O[C@H](CO)[C@@H](O)[C@H](O)[C@H]4O)[C@@H]2CC[C@]1(O[C@@H]1O[C@H](CO)[C@@H](O)[C@H](O)[C@H]1O)C3 [Rubusoside]
Sugar Solubility in 95% EtOH [3]: 10 mg/mL
Sugar Solubility in Water [3]: Soluble
solubility of the sugar in water (observation) [4, 5]: No undissolved

C=C1C[C@@]23CC[C@H]4[C@@](C)(CCC[C@@]4(C)C(=O)O[C@@H]4O[C@H](CO)[C@@H](O)[C@H](O)[C@H]4O)[C@@H]2CC[C@]1(O[C@@H]1O[C@H](CO)[C@@H](O)[C@H](O)[C@H]1O[C@@H]1O[C@H](CO)[C@@H](O)[C@H](O)[C@H]1O)C3 [Stevioside]
Sugar Solubility in 95% EtOH [3]: 30 mg/mL
Sugar Solubility in Water [3]: 4 g/L

CN1CC(=O)N2[C@H](c3ccc4c(c3)OCO4)c3[nH]c4ccccc4c3C[C@@H]2C1=O [Tadalafil, (2R,8R)-2-(1,3-benzodioxol-5-yl)-6-methyl-3,6,17-triazatetracyclo[8.7.0.0^3, 8.0^11, 16]heptadeca-1(10),11,13,15-tetraene-4,7-dione]
solubility in water ([1]; at 25° C.): 220 mg/L at 25 °C in water
solubility in chloroform [1]: soluble
improvement in water solubility [2]: ~2.3%
appearance of the dried gel in water ([2]; Example 31, Tadalafil:Tween 80 1:5 molar, after 3 minutes): white and turbid solution
appearance of the dried mixture in 3 mL water ([2]; Example 31, tadalafil:P188:stevioside 1:10:5 molar): white turbid solution
appearance of the dried mixture in water ([2]; Example 31, tadalafil:P-188 1:10): turbid solution
appearance of the dried mixture in 2.0 mL water ([2]; Example 31, tadalafil:Tween 20 1:5 molar): white turbid solution with solids still visible
appearance of the dried mixture in 3.0 mL water ([2]; Example 31, tadalafil:glycerol:stevioside 1:20:5): white turbid solution
low-intensity drug peaks by NMR ([2]; Example 31, tadalafil:glycerol:stevioside 1:20:5, 10 mg citric acid monohydrate, pH about 3.0): 2-3%
appearance of the dried mixture in 3.0 mL water ([2]; Example 31, tadalafil:glycerol:stevioside 1:30:5, citric acid, pH about 3.0): white turbid
appearance of the dried mixture in water ([2]; Example 31, tadalafil:stevioside 1:3 molar, citric acid in step 1): white turbid solution
appearance of the dried powder in 2 mL water ([2]; Example 31, tadalafil:stevioside 1:10 molar, buffer pH 9.4 added in water): white turbid solution
appearance of the dried mixture in water ([2]; Example 31, tadalafil:stevioside 1:10 molar, carbonate buffer pH 9.4 in step 1): white and turbid
solubility of the complex in water ([2]; pH 2.5): not 100% soluble

CCCOc1ccc(S(=O)(=O)NCCC2CCCN2C)cc1-c1nc2c(CCC)nn(C)c2c(=O)[nH]1 (centres unmarked) [Udenafil]
solubility in DMSO [1]: soluble
water solubility ([1]; drug alone): about 0.0798 mg/mL

CCCc1nc(C)c2c(=O)[nH]c(-c3cc(S(=O)(=O)N4CCN(CC)CC4)ccc3OCC)nn12 [Vardenafil HCl]
solubility in DMSO ([1]; at 28° C., solids remain present at 22° C.): soluble
solubility in chloroform [1]: insoluble
solubility of the complex in water by NMR [2]: 100%

CCCc1nc(C)c2c(=O)[nH]c(-c3cc(S(=O)(=O)N4CCN(CC)CC4)ccc3OCC)nn12 [Vardenafil, 2-[2-ethoxy-5-(4-ethylpiperazin-1-yl)sulfonylphenyl]-5-methyl-7-propyl-3H-imidazo[5,1-f][1,2,4]triazin-4-one]
solubility in water ([1]; at 25° C., Estimated): 3.5 mg/L at 25° C./

C=C1C[C@@]23CC[C@H]4[C@@](C)(CCC[C@@]4(C)C(=O)O[C@@H]4O[C@H](CO)[C@@H](O)[C@H](O)[C@H]4O)[C@@H]2CC[C@]1(O[C@@H]1O[C@H](CO)[C@@H](O)[C@H](O[C@@H]2O[C@H](CO)[C@@H](O)[C@H](O)[C@H]2O)[C@H]1O[C@@H]1O[C@@H](C)[C@H](O)[C@@H](O)[C@H]1O)C3 [dulcoside B]
Sugar Solubility in 95% EtOH [3]: Slightly soluble
Sugar Solubility in Water [3]: Partly soluble
solubility of the sugar in water (observation) [4, 5]: partially soluble

CCCCCCCCCCCCO[C@@H]1O[C@H](CO)[C@@H](O[C@H]2O[C@H](CO)[C@@H](O)[C@H](O)[C@H]2O)[C@H](O)[C@H]1O [n-Dodecyl-β-D-maltoside]
Sugar Solubility in 95% EtOH [3]: Soluble
Sugar Solubility in Water [3]: 50 g/L
solubility of the sugar in 95% ethanol (observation) ([4]; 50 mg in 2.0 mL 95% ethanol): soluble
solubility of the sugar in water (observation) ([4]; 50 mg in 2.0 mL water): soluble

C[C@]12C=CC(=O)C=C1CC[C@@H]1[C@@H]2C(=O)C[C@@]2(C)[C@H]1CC[C@]2(O)C(=O)CO [prednisone]
appearance of the dried powder re-dissolved in 2 mL deionized water ([2]; Example 23, rubusoside 50 mg : prednisone 5 mg): white turbid mixture

OC[C@H]1O[C@@](CO)(O[C@H]2O[C@H](CO)[C@@H](O)[C@H](O)[C@H]2O)[C@@H](O)[C@@H]1O [sucrose]
Sugar Solubility in 95% EtOH [3]: Insoluble
Sugar Solubility in Water [3]: 204 g/100 g water

C[C@]12CC[C@H]3[C@@H](CCC4=CC(=O)CC[C@@]43C)[C@@H]1CC[C@@H]2OC(=O)CCC1CCCC1 [testosterone cypionate]
appearance of the dried mixture dissolved in water ([2]; rubusoside 23.4 mg : testosterone cypionate 5 mg (3:1 sugar-to-drug)): white turbid solution
appearance of the dried powder in 2 mL water ([2]; testosterone cypionate:stevioside 1:10 molar): white-turbid solution

Source: US12115222B2, “Compositions and methods for improving the solubility of erectile dysfunction therapeutics” (Villya LLC, priority 2023, dated 2024)
